Measured values from PubChem BioAssay AID2060909 (Molecular Pharmacology Branch, DTP, NCI, 2025).
Several values for one entry are separate records, joined by “and”; a condition that tells them apart may be missing. Identical values can stand only once.

Tested on: 362531-283-R-J2-PDC complex spheroid viability
Assay: Anticancer human tumor 362531-283-R-J2-PDC patient-derived colon adenocarcinoma cell line growth inhibition [RAS]
Conditions: for viability, T/C: stronger effect = lower value
Summary of the method: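 Tumour cells grown as complex spheroids with HUVEC endothelial cells and mesenchymal stem cells, treated with RAS pathway inhibitor combinations. Each agent spans half-log steps from near clinical Cmax, or 10 microM where Cmax is unknown.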
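Also: spheroids exposed to the agents for 7 days before readout.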
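For viability, T/C in this document: luminescence viability as percent of DMSO vehicle control wells.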

Q: Which results are given for `CCc1c2c(nc3ccc(O)cc13)-c1cc3c(c(=O)n1C2)COC(=O)[C@]3(O)CC` + CCn1c(-c2cc(N3CCN(C)CC3)cnc2C(C)OC)c2c3cc(ccc31)-c1csc(n1)CC(NC(=O)C1CC1C)C(=O)N1CCCC(N1)C(=O)OCC(C)(C)C2?
A: IC50 (curve of first compound, second compound 0.000949 µM): 42.1 nM; IC50 (curve of first compound, second compound 0.003 µM): 37.8 nM; IC50 (curve of first compound, second compound 0.00949 µM): 41.4 nM; IC50 (curve of first compound, second compound 0.03 µM): 35.8 nM; IC50 (curve of first compound, second compound 0.0949 µM): 14.4 nM; IC50 (curve of first compound, second compound 0.3 µM): < 0.949 nM; viability, T/C (second compound 0.000949 µM, first compound 0.000949 µM): 94.3%; viability, T/C (second compound 0.000949 µM, first compound 0.003 µM): 90.9%; viability, T/C (second compound 0.000949 µM, first compound 0.00949 µM): 80.9%; viability, T/C (second compound 0.000949 µM, first compound 0.03 µM): 61.4%; viability, T/C (second compound 0.000949 µM, first compound 0.0949 µM): 26.2%; viability, T/C (second compound 0.000949 µM, first compound 0.3 µM): 16.4%; viability, T/C (second compound 0.003 µM, first compound 0.000949 µM): 97.5%; viability, T/C (second compound 0.003 µM, first compound 0.003 µM): 99.7%; viability, T/C (second compound 0.003 µM, first compound 0.00949 µM): 75.1%; viability, T/C (second compound 0.003 µM, first compound 0.03 µM): 61.8%; viability, T/C (second compound 0.003 µM, first compound 0.0949 µM): 23.4%; viability, T/C (second compound 0.003 µM, first compound 0.3 µM): 19.2%; viability, T/C (second compound 0.00949 µM, first compound 0.000949 µM): 101%; viability, T/C (second compound 0.00949 µM, first compound 0.003 µM): 97.1%; viability, T/C (second compound 0.00949 µM, first compound 0.00949 µM): 74.4%; viability, T/C (second compound 0.00949 µM, first compound 0.03 µM): 63.6%; viability, T/C (second compound 0.00949 µM, first compound 0.0949 µM): 26.9%; viability, T/C (second compound 0.00949 µM, first compound 0.3 µM): 12.6%; viability, T/C (second compound 0.03 µM, first compound 0.000949 µM): 94.3%; viability, T/C (second compound 0.03 µM, first compound 0.003 µM): 89.1%; viability, T/C (second compound 0.03 µM, first compound 0.00949 µM): 69.4%; viability, T/C (second compound 0.03 µM, first compound 0.03 µM): 59.5%; viability, T/C (second compound 0.03 µM, first compound 0.0949 µM): 25.3%; viability, T/C (second compound 0.03 µM, first compound 0.3 µM): 7.44%; viability, T/C (second compound 0.0949 µM, first compound 0.000949 µM): 76.8%; viability, T/C (second compound 0.0949 µM, first compound 0.003 µM): 65.3%; viability, T/C (second compound 0.0949 µM, first compound 0.00949 µM): 61.4%; viability, T/C (second compound 0.0949 µM, first compound 0.03 µM): 33.8%; viability, T/C (second compound 0.0949 µM, first compound 0.0949 µM): 14.2%; viability, T/C (second compound 0.0949 µM, first compound 0.3 µM): 5.26%; viability, T/C (second compound 0.3 µM, first compound 0.000949 µM): 33.5%; viability, T/C (second compound 0.3 µM, first compound 0.003 µM): 45.4%; viability, T/C (second compound 0.3 µM, first compound 0.00949 µM): 17.2%; viability, T/C (second compound 0.3 µM, first compound 0.03 µM): 13.4%; viability, T/C (second compound 0.3 µM, first compound 0.0949 µM): 5.23%; viability, T/C (second compound 0.3 µM, first compound 0.3 µM): 2.69%

Q: `CC1(O)CCCC1n1c(=O)c(C(F)F)cc2cnc(NC3CCN(S(C)(=O)=O)CC3)nc21` (centres undefined) + C=CC(=O)N1CCN(c2nc(OCC3CCCN3C)nc3c(F)c(-c4nc(N)cc(C)c4C(F)(F)F)c(Cl)cc23)C(C)C1 was tested. Which IC50 (curve of first compound, second compound 0.00316 µM) did it give?
A: > 10000 nM

Q: And the IC50 (curve of first compound, second compound 0.01 µM)?
A: > 10000 nM

Q: And the IC50 (curve of first compound, second compound 0.0316 µM)?
A: > 10000 nM

Q: And the IC50 (curve of first compound, second compound 0.1 µM)?
A: > 10000 nM

Q: And the IC50 (curve of first compound, second compound 0.316 µM)?
A: > 10000 nM

Q: And the IC50 (curve of first compound, second compound 1 µM)?
A: > 10000 nM

Q: What about the viability, T/C (second compound 0.00316 µM, first compound 0.0316 µM) of the same compound?
A: 97.6%

Q: What about the viability, T/C (second compound 0.00316 µM, first compound 0.1 µM) of the same compound?
A: 98%

Q: And the viability, T/C (second compound 0.00316 µM, first compound 0.316 µM)?
A: 77.6%

Q: And the viability, T/C (second compound 0.00316 µM, first compound 1 µM)?
A: 68.3%

Q: What about the viability, T/C (second compound 0.00316 µM, first compound 3.16 µM) of the same compound?
A: 64.8%

Q: And the viability, T/C (second compound 0.00316 µM, first compound 10 µM)?
A: 101%

Q: And the viability, T/C (second compound 0.01 µM, first compound 0.0316 µM)?
A: 101%

Q: And the viability, T/C (second compound 0.01 µM, first compound 0.1 µM)?
A: 97.1%

Q: And the viability, T/C (second compound 0.01 µM, first compound 0.316 µM)?
A: 83.1%

Q: What about the viability, T/C (second compound 0.01 µM, first compound 1 µM) of the same compound?
A: 75.5%

Q: What about the viability, T/C (second compound 0.01 µM, first compound 3.16 µM) of the same compound?
A: 68.6%

Q: What about the viability, T/C (second compound 0.01 µM, first compound 10 µM) of the same compound?
A: 65.7%

Q: What about the viability, T/C (second compound 0.0316 µM, first compound 0.0316 µM) of the same compound?
A: 102%

Q: And the viability, T/C (second compound 0.0316 µM, first compound 0.1 µM)?
A: 93.2%

Q: What about the viability, T/C (second compound 0.0316 µM, first compound 0.316 µM) of the same compound?
A: 82.8%

Q: And the viability, T/C (second compound 0.0316 µM, first compound 1 µM)?
A: 76.1%

Q: What about the viability, T/C (second compound 0.0316 µM, first compound 3.16 µM) of the same compound?
A: 60%

Q: What about the viability, T/C (second compound 0.0316 µM, first compound 10 µM) of the same compound?
A: 95.2%

Q: And the viability, T/C (second compound 0.1 µM, first compound 0.0316 µM)?
A: 91.5%

Q: What about the viability, T/C (second compound 0.1 µM, first compound 0.1 µM) of the same compound?
A: 95%

Q: And the viability, T/C (second compound 0.1 µM, first compound 0.316 µM)?
A: 93.5%

Q: What about the viability, T/C (second compound 0.1 µM, first compound 1 µM) of the same compound?
A: 75.2%

Q: And the viability, T/C (second compound 0.1 µM, first compound 3.16 µM)?
A: 54.1%

Q: And the viability, T/C (second compound 0.1 µM, first compound 10 µM)?
A: 89.7%

Q: And the viability, T/C (second compound 0.316 µM, first compound 0.0316 µM)?
A: 97.2%

Q: What about the viability, T/C (second compound 0.316 µM, first compound 0.1 µM) of the same compound?
A: 92.5%

Q: And the viability, T/C (second compound 0.316 µM, first compound 0.316 µM)?
A: 89.2%

Q: What about the viability, T/C (second compound 0.316 µM, first compound 1 µM) of the same compound?
A: 70.2%

Q: And the viability, T/C (second compound 0.316 µM, first compound 3.16 µM)?
A: 64.4%

Q: And the viability, T/C (second compound 0.316 µM, first compound 10 µM)?
A: 69.1%

Q: And the viability, T/C (second compound 1 µM, first compound 0.0316 µM)?
A: 98.6%

Q: What about the viability, T/C (second compound 1 µM, first compound 0.1 µM) of the same compound?
A: 104%

Q: What about the viability, T/C (second compound 1 µM, first compound 0.316 µM) of the same compound?
A: 89.9%

Q: What about the viability, T/C (second compound 1 µM, first compound 1 µM) of the same compound?
A: 77.4%

Q: What about the viability, T/C (second compound 1 µM, first compound 3.16 µM) of the same compound?
A: 70.8%

Q: What about the viability, T/C (second compound 1 µM, first compound 10 µM) of the same compound?
A: 53%

Q: Which results are given for `CCN1CCN(Cc2ccc(Nc3ncc(F)c(-c4cc(F)c5nc(C)n(C(C)C)c5c4)n3)nc2)CC1`?
A: viability, T/C (compound 0.00316 µM): 100% (2×) and 99.6% and 106%; viability, T/C (compound 0.01 µM): 95.9% [middle of 4 runs]; viability, T/C (compound 0.1 µM): 79.9% [middle of 4 runs]; viability, T/C (compound 0.316 µM): 65.4% [middle of 4 runs]; IC50 (curve of compound): > 1000 nM
